Measurements: patent US20230407243A1, “GENETIC PLATFORM TO INVESTIGATE THE FUNCTIONS OF BACTERIAL DRUG EFFLUX PUMPS” (priority 2022, published 2023)
Like-named read-outs stand apart in the source and are kept apart here.

Assays:
Type in all cases: cell-based, Escherichia coli
[1] = tested on: wild-type E. coli K-12
Outline: (§1)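 Checkerboard broth microdilution in MHB II followed CLSI guidelines, with MIC defined as the lowest concentration giving no growth by OD600. FICI was calculated as CA/MICA + CB/MICB for PAβN or NMP combined with an antibiotic, with <0.5 classed as synergistic. Efflux-attributed fold resistance is the strain MIC divided by the EKO-35 MIC.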

[2] = tested on: ΔtolC-Pore
Outline: as §1

[3] = tested on: ΔtolC
Outline: as §1

[4] = tested on: EKO-35
Outline: as §1

[5] = tested on: EKO-35 acrBD408A
Outline: as §1

[6] = tested on: EKO-35 strains producing different efflux pumps (EKO-35 araC::X); assay: Checkerboard synergy (FICI) of PAβN or NMP with antibiotics
Outline: as §1

[7] = tested on: EKO-35 porinated strain expressing acrF (AcrEF); assay: Checkerboard synergy (FICI), porinated strain
Outline: as §1

[8] = tested on: wild-type K-12-Pore; assay: Checkerboard synergy (FICI), porinated strain
Outline: as §1

[9] = tested on: EKO-35-Pore strains producing other efflux pumps; assay: Checkerboard synergy (FICI), porinated strain
Outline: as §1

[10] = strain ΔtolC Pore, NMP + antibiotic
[11] = EKO-35 acrBD408A, NMP + antibiotic
[12] = EKO-35 acrBD408A, PAβN + antibiotic
[13] = strain EKO-35 acrBD408A, NMP + antibiotic
[14] = EKO-35 mdtEF, PAβN + antibiotic
[15] = strain EKO-35 acrB, NMP + antibiotic
[16] = strain EKO-35 acrEF, NMP + antibiotic
[17] = strain EKO-35 mdtEF, NMP + antibiotic
[18] = EKO-35 acrEF Pore, NMP + antibiotic
[19] = EKO-35 acrEF Pore, PAβN + antibiotic
[20] = strain EKO-35 acrEF Pore, NMP + antibiotic
[21] = strain K-12 Pore, NMP + antibiotic
[22] = EKO-35 mdtEF Pore, PAβN + antibiotic

In the case of `CC[C@H]1OC(=O)[C@H](C)[C@@H](O[C@H]2C[C@@](C)(OC)[C@@H](O)[C@H](C)O2)[C@H](C)[C@@H](O[C@@H]2O[C@H](C)C[C@H](N(C)C)[C@H]2O)[C@](C)(O)C[C@@H](C)C(=O)[C@H](C)[C@@H](O)[C@]1(C)O` [erythromycin], the Effect ([1]; K-12, NMP + antibiotic) is reported as “Additive”, the FICI ([1]; K-12, NMP + antibiotic) is reported as 0.625 and the Effect ([1]; K-12, PAβN + antibiotic) is reported as “Synergistic”. The FICI ([1]; K-12, PAβN + antibiotic) was 0.094, the “MICb Alone” value ([1]; K-12, antibiotic alone (PAβN checkerboard)) was 64 µg/mL and the “MICb Combined” value ([1]; K-12, antibiotic in combination with PAβN) was 2 µg/mL. For the same compound, the Effect ([1]; strain K-12, NMP + antibiotic) was “Additive (additive (FICI >0.5-1.0))”, the FICI ([1]; strain K-12, NMP + antibiotic) was 0.625 and the “MICb Combined” value ([1]; strain K-12, antibiotic in combination with NMP) was 16 µg/mL. For the same compound, the Effect [2, 10] was “Synergistic (Synergy (FICI ≤0.5))”, the FICI [2, 10] was 0.625 and the “MICb Alone” value ([2]; strain ΔtolC Pore, antibiotic alone) was 4 µg/mL. The “MICb Combined” value ([2]; strain ΔtolC Pore, antibiotic in combination with NMP) was 0.5 µg/mL, the Effect ([2]; ΔtolC Pore, NMP + antibiotic) was “Synergistic” and the FICI ([2]; ΔtolC Pore, NMP + antibiotic) was 0.625. For the same compound, the Effect ([2]; ΔtolC Pore, PAβN + antibiotic) was “Synergistic”, the FICI ([2]; ΔtolC Pore, PAβN + antibiotic) was 0.188 and the “MICb Alone” value ([2]; ΔtolC Pore, antibiotic alone (PAβN checkerboard)) was 1 µg/mL. The “MICb Combined” value ([2]; ΔtolC Pore, antibiotic in combination with PAβN) was 0.063 µg/mL, the Effect ([3]; strain ΔtolC, NMP + antibiotic) was “— (indifferent (FICI >1.0))” and the FICI ([3]; strain ΔtolC, NMP + antibiotic) was 1.000. For the same compound, the “MICb Alone” value ([3]; strain ΔtolC, antibiotic alone) was 4 µg/mL, the “MICb Combined” value ([3]; strain ΔtolC, antibiotic in combination with NMP) was 2 µg/mL and the FICI ([3]; ΔtolC, NMP + antibiotic) was 1.000. For the same compound, the Effect ([3]; ΔtolC, PAβN + antibiotic) was “Synergistic”, the FICI ([3]; ΔtolC, PAβN + antibiotic) was 0.188 and the “MICb Alone” value ([3]; ΔtolC, antibiotic alone (PAβN checkerboard)) was 4 µg/mL. For the same compound, the “MICb Combined” value ([3]; ΔtolC, antibiotic in combination with PAβN) was 0.25 µg/mL, the Effect ([4]; EKO-35, NMP + antibiotic) was “Synergistic” and the Effect ([4]; EKO-35, PAβN + antibiotic) was “Synergistic”. For the same compound, the FICI ([4]; EKO-35, PAβN + antibiotic) was 0.093, the “MICb Alone” value ([4]; EKO-35, antibiotic alone (PAβN checkerboard)) was 2 µg/mL and the “MICb Combined” value ([4]; EKO-35, antibiotic in combination with PAβN) was 0.06 µg/mL. For the same compound, the “interaction of NMP in combination with the labelled antibiotic (FICI)” value ([4]; EKO-35 and EKO-35 acrBD408A) was “low-level synergy”, the “interaction of PAβN in combination with the labelled antibiotic (FICI)” value ([4]; efflux-deficient strains EKO-35, EKO-35 acrBD408A, ΔtolC) was “synergized” and the Effect ([4]; strain EKO-35, NMP + antibiotic) was “Synergistic (Synergy (FICI ≤0.5))”. The “MICb Alone” value ([4]; strain EKO-35, antibiotic alone) was 2 µg/mL, the “MICb Combined” value ([4]; strain EKO-35, antibiotic in combination with NMP) was 0.25 µg/mL and the Effect [5, 11] was “Synergistic”. For the same compound, the FICI [5, 11] was 0.500, the Effect [5, 12] was “Synergistic” and the FICI [5, 12] was 0.190. For the same compound, the “MICb Alone” value ([5]; EKO-35 acrBD408A, antibiotic alone (PAβN checkerboard)) was 2 µg/mL, the “MICb Combined” value ([5]; EKO-35 acrBD408A, antibiotic in combination with PAβN) was 0.13 µg/mL and the Effect [5, 13] was “Synergistic (Synergy (FICI ≤0.5))”. The FICI [5, 13] was 0.500, the “MICb Alone” value ([5]; strain EKO-35 acrBD408A, antibiotic alone) was 2 µg/mL and the “MICb Combined” value ([5]; strain EKO-35 acrBD408A, antibiotic in combination with NMP) was 0.5 µg/mL. The Effect ([6]; EKO-35 acrB, NMP + antibiotic) was “Additive”, the FICI ([6]; EKO-35 acrB, NMP + antibiotic) was 0.531 and the Effect ([6]; EKO-35 acrB, PAβN + antibiotic) was “Synergistic”. For the same compound, the FICI ([6]; EKO-35 acrB, PAβN + antibiotic) was 0.078, the “MICb Alone” value ([6]; EKO-35 acrB, antibiotic alone (PAβN checkerboard)) was 64 µg/mL and the “MICb Combined” value ([6]; EKO-35 acrB, antibiotic in combination with PAβN) was 1 µg/mL. For the same compound, the FICI ([6]; EKO-35 acrEF, NMP + antibiotic) was 2.000, the Effect ([6]; EKO-35 acrEF, PAβN + antibiotic) was “Synergistic” and the “MICb Alone” value ([6]; EKO-35 acrEF, antibiotic alone (PAβN checkerboard)) was 8 µg/mL. For the same compound, the “MICb Combined” value ([6]; EKO-35 acrEF, antibiotic in combination with PAβN) was 0.5 µg/mL, the Effect ([6]; EKO-35 mdtEF, NMP + antibiotic) was “Synergistic” and the FICI ([6]; EKO-35 mdtEF, NMP + antibiotic) was 0.250. For the same compound, the Effect [6, 14] was “Synergistic”, the FICI [6, 14] was 0.094 and the “MICb Alone” value ([6]; EKO-35 mdtEF, antibiotic alone (PAβN checkerboard)) was 16 µg/mL. For the same compound, the “MICb Combined” value ([6]; EKO-35 mdtEF, antibiotic in combination with PAβN) was 0.5 µg/mL, the Effect ([6]; EKO-35 mexCD, NMP + antibiotic) was “Synergistic” and the Effect ([6]; EKO-35 mexCD, PAβN + antibiotic) was “Synergistic”. For the same compound, the “MICb Alone” value ([6]; EKO-35 mexCD, antibiotic alone (PAβN checkerboard)) was 8 µg/mL, the “MICb Combined” value ([6]; EKO-35 mexCD, antibiotic in combination with PAβN) was 0.5 µg/mL and the Effect [6, 15] was “Additive (additive (FICI >0.5-1.0))”. The FICI [6, 15] was 0.531, the “MICb Combined” value ([6]; strain EKO-35 acrB, antibiotic in combination with NMP) was 64 µg/mL and the Effect [6, 16] was “— (indifferent (FICI >1.0))”. For the same compound, the FICI [6, 16] was 2.000, the “MICb Alone” value ([6]; strain EKO-35 acrEF, antibiotic alone) was 8 µg/mL and the “MICb Combined” value ([6]; strain EKO-35 acrEF, antibiotic in combination with NMP) was 8 µg/mL. The Effect [6, 17] was “Synergistic (Synergy (FICI ≤0.5))”, the FICI [6, 17] was 0.250 and the “MICb Alone” value ([6]; strain EKO-35 mdtEF, antibiotic alone) was 64 µg/mL. The “MICb Combined” value ([6]; strain EKO-35 mdtEF, antibiotic in combination with NMP) was 8 µg/mL, the Effect ([6]; strain EKO-35 mexCD, NMP + antibiotic) was “Synergistic (Synergy (FICI ≤0.5))” and the “MICb Alone” value ([6]; strain EKO-35 mexCD, antibiotic alone) was 16 µg/mL. For the same compound, the “MICb Combined” value ([6]; strain EKO-35 mexCD, antibiotic in combination with NMP) was 2 µg/mL, the Effect [7, 18] was “Additive” and the FICI [7, 18] was 0.750. The Effect [7, 19] was “Synergistic”, the FICI [7, 19] was 0.385 and the “MICb Alone” value ([7]; EKO-35 acrEF Pore, antibiotic alone (PAβN checkerboard)) was 0.5 µg/mL. The “MICb Combined” value ([7]; EKO-35 acrEF Pore, antibiotic in combination with PAβN) was 0.13 µg/mL, the Effect [7, 20] was “Additive (additive (FICI >0.5-1.0))” and the FICI [7, 20] was 0.750. The “MICb Alone” value ([7]; strain EKO-35 acrEF Pore, antibiotic alone) was 1 µg/mL, the “MICb Combined” value ([7]; strain EKO-35 acrEF Pore, antibiotic in combination with NMP) was 0.5 µg/mL and the FICI ([8]; K-12 Pore, NMP + antibiotic) was 1.000. For the same compound, the Effect ([8]; K-12 Pore, PAβN + antibiotic) was “Synergistic”, the “MICb Alone” value ([8]; K-12 Pore, antibiotic alone (PAβN checkerboard)) was 4 µg/mL and the “MICb Combined” value ([8]; K-12 Pore, antibiotic in combination with PAβN) was 0.25 µg/mL. For the same compound, the Effect [8, 21] was “— (indifferent (FICI >1.0))”, the FICI [8, 21] was 1.000 and the “MICb Alone” value ([8]; strain K-12 Pore, antibiotic alone) was 16 µg/mL. For the same compound, the “MICb Combined” value ([8]; strain K-12 Pore, antibiotic in combination with NMP) was 8 µg/mL, the Effect ([9]; EKO-35 mdtEF Pore, NMP + antibiotic) was “Additive” and the Effect [9, 22] was “Synergistic”. The FICI [9, 22] was 0.185, the “MICb Alone” value ([9]; EKO-35 mdtEF Pore, antibiotic alone (PAβN checkerboard)) was 1 µg/mL and the “MICb Combined” value ([9]; EKO-35 mdtEF Pore, antibiotic in combination with PAβN) was 0.06 µg/mL. The Effect ([9]; strain EKO-35 mdtEF Pore, NMP + antibiotic) was “Additive (additive (FICI >0.5-1.0))”, the “MICb Alone” value ([9]; strain EKO-35 mdtEF Pore, antibiotic alone) was 8 µg/mL and the “MICb Combined” value ([9]; strain EKO-35 mdtEF Pore, antibiotic in combination with NMP) was 1 µg/mL.
